Two compounds from patent US20180230160A1, “2-AMINO-7A-PHENYL-3,4,4A,5,7,7A-HEXAHYDROFURO[3,4-B]PYRIDINES AS BACE1 INHIBITORS” (H. Lundbeck A/S, priority 2015, published 2018) can be followed below.

A word on the efflux ratio: it is a quotient of directional permeabilities that is used to spot active efflux.

Read-outs that look alike come from different tables or passages of the source.

Data set [1] is described as follows: Compound exposure in rat brain and plasma after oral dosing (DMPK analysis). Type of data set: in vivo. As to conditions: male, Sprague Dawley, 3 hours post dose; for concentration at 3 h: read-out: Exp (exposure); for Kp at 3 h: brain/plasma, read-out: Brain/Plasma ratio. The procedure:
Young adult Male Sprague Dawley rats of approximately 250 g weight were purchased from Charles River and received 0-30 mg/kg of vehicle (10% HP betaCD+1M MeSO4, pH 2.5) or test compounds (dissolved in vehicle) only by oral gavage (p.o). The compounds are dosed at a volume of 5 ml/kg. Cohorts of 5-10 animals were established for each treatment condition.
At T=180 minutes after initial dosing the animals were stunned and decapitated with a guillotine. Trunk-blood was sampled in EDTA coated tubes after decapitation of the animal. The blood was centrifuged at 2200G at 4° C. for 15 minutes and the plasma was collected and frozen at −80° C. The blood was aliquoted for Aβ ELISA and DMPK analysis. Immediately following sacrifice, the brain was extracted and split into 2 halves. The right hemibrains were snap frozen on dry ice and stored at −80° C. The left half was dissected; with the front forebrain taken for Aβ ELISA and the remainder used for DMPK analysis. These samples were also snap frozen on dry ice and stored at −80° C. until use for analysis.
The results of the administration of representative Compounds of Examples 1, 2, 5, […], of brain and plasma samples collected at 3 hours post dose and then following exposures, as described above, are tabulated below.

The next data set relates to P-gp (MDR1). In words: MDCK-MDR1 assay (permeability, efflux ratio). Type of data set: in vitro ADME. As to conditions: dog, Papp BA/Papp AB, 60-minute incubation.

As for `COc1cnc(C(=O)Nc2ccc(F)c([C@]34COC[C@@]3(F)C[C@@](C)(F)C(N)=N4)c2)cn1` [Example 7, N-(3-((3R,4aR,7aS)-2-amino-3,4a-difluoro-3-methyl-3,4,4a,5,7,7a-hexahydrofuro[3,4-b]pyridin-7a-yl)-4-fluorophenyl)-5-methoxypyrazine-2-carboxamide], the concentration at 3 h in data set [1] (Brain, 10 mg/kg p.o.) came to 93 ng/g; in data set [1] (Brain, 30 mg/kg p.o.) it was 479 ng/g; in data set [1] (Plasma, 10 mg/kg p.o.), 88 ng/g; in data set [1] (Plasma, 30 mg/kg p.o.) it was 239 ng/g. In addition, the results for the Kp at 3 h in data set [1] (10 mg/kg p.o.) and in data set [1] (30 mg/kg p.o.) were 1.05 and 2.01, respectively. Besides, the efflux ratio at 60 min, 0.5 μM in the data set on P-gp (MDR1) is 0.94.
As to `[2H]C([2H])([2H])Oc1ccc(C(=O)Nc2ccc(F)c([C@]34COC[C@H]3C[C@@](F)(CF)C(N)=N4)c2)nc1` [Example 22, N-(3-((3S,4aS,7aS)-2-amino-3-fluoro-3-(fluoromethyl)-3,4,4a,5-tetrahydrofuro[3,4-b]pyridin-7a-yl)-4-fluorophenyl)-5-(methoxy-d3)picolinamide], the concentration at 3 h was determined as 153 ng/g in data set [1] (Brain, 10 mg/kg p.o.); 776 ng/g in data set [1] (Brain, 30 mg/kg p.o.); 399 ng/g in data set [1] (Plasma, 10 mg/kg p.o.); 1830 ng/g in data set [1] (Plasma, 30 mg/kg p.o.). The results for the Kp at 3 h in data set [1] (10 mg/kg p.o.) and in data set [1] (30 mg/kg p.o.) were 0.38 and 0.42, respectively. For the same compound, the efflux ratio at 60 min, 0.5 μM in the data set with P-gp (MDR1) worked out at 1.85.
